Assay results: paper PMC4744544 (Analytical biochemistry, 2015)

Key:
Dgt = target: T1, Dgt (Escherichia coli, UniProt P15723); test: discontinuous HPLC of deoxyguanosine, Michaelis-Menten fit; format: biochemical; details: 20 mM Tris-HCl pH 8.0; 5 mM MgCl2; 30 °C; Dgt 0.2 nM hexamer
T1 sequence (P15723 2-505): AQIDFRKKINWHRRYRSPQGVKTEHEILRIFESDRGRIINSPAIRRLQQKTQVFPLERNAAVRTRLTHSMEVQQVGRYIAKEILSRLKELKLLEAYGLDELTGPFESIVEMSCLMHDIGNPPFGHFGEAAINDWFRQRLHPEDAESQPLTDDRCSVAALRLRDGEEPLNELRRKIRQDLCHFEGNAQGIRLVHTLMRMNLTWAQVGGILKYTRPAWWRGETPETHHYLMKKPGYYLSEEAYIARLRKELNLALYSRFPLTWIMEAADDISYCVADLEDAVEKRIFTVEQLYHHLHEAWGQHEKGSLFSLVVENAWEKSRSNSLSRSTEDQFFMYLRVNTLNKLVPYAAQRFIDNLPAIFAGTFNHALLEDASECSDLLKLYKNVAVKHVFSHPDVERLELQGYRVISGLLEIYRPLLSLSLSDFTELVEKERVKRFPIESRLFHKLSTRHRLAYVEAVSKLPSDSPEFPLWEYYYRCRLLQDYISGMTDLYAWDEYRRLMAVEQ

[1] = system: Purine Nucleoside Phosphorylase (PNPase; EC 2.4.2.1); test: XOD-coupled absorbance at […] nm, initial velocities, Michaelis-Menten fit; format: biochemical; details: 100 mM Tris-HCl pH 8; 5 mM KH2PO4; PNPase 50 mU/mL; XOD 500 mU/mL as coupling enzyme

| Structure (SMILES) | Km (Dgt) | Km [1] |
| --- | --- | --- |
| Nc1nc2c(ncn2[C@H]2C[C@H](O)[C@@H](COP(=O)(O)OP(=O)(O)OP(=O)(O)O)O2)c(=O)[nH]1 [dGTP] | the best fit to the data is a simple Michaelis-Menten curve | – |
| Nc1nc2c(ncn2[C@H]2C[C@H](O)[C@@H](CO)O2)c(=O)[nH]1 [deoxyguanosine] | – | 110 ± 13 µM |
